Reference: PMC12026874, “Microstructure of Sea Cucumber Parastichopus tremulus Peptide Hydrogels and Bioactivity in Caco-2 Cell Culture Model” (Gels, 2025)
“Also recorded” adds a separate entry of the source. Where no end group is shown, it is not given here.

Assays:
[1] = Experimental solubility and minimum gelation conditions; assay type: physicochemical; settings: for solubility in sodium phosphate buffer (NaPB): 75 mM sodium phosphate buffer pH 7.4 (also ORAC buffer), 1–15 mM; for peptide concentration at which gelation occurs in NaPB: 75 mM sodium phosphate buffer pH 7.4, room temperature, no DMSO
[2] = target: T1, angiotensin-I converting enzyme (ACE I) (Oryctolagus cuniculus, UniProt P12822); assay: ACE I inhibitory activity (cleavage of FA-PGG); assay type: biochemical; settings: for IC50: linear regression over 7, 8.5 and 10 mg/mL, substrate FA-PGG, three independent replicates, read-out: ACE I inhibition IC50 (converted)
T1 construct: purchased Sigma Aldrich A6778
T1 sequence (P12822 34-1310): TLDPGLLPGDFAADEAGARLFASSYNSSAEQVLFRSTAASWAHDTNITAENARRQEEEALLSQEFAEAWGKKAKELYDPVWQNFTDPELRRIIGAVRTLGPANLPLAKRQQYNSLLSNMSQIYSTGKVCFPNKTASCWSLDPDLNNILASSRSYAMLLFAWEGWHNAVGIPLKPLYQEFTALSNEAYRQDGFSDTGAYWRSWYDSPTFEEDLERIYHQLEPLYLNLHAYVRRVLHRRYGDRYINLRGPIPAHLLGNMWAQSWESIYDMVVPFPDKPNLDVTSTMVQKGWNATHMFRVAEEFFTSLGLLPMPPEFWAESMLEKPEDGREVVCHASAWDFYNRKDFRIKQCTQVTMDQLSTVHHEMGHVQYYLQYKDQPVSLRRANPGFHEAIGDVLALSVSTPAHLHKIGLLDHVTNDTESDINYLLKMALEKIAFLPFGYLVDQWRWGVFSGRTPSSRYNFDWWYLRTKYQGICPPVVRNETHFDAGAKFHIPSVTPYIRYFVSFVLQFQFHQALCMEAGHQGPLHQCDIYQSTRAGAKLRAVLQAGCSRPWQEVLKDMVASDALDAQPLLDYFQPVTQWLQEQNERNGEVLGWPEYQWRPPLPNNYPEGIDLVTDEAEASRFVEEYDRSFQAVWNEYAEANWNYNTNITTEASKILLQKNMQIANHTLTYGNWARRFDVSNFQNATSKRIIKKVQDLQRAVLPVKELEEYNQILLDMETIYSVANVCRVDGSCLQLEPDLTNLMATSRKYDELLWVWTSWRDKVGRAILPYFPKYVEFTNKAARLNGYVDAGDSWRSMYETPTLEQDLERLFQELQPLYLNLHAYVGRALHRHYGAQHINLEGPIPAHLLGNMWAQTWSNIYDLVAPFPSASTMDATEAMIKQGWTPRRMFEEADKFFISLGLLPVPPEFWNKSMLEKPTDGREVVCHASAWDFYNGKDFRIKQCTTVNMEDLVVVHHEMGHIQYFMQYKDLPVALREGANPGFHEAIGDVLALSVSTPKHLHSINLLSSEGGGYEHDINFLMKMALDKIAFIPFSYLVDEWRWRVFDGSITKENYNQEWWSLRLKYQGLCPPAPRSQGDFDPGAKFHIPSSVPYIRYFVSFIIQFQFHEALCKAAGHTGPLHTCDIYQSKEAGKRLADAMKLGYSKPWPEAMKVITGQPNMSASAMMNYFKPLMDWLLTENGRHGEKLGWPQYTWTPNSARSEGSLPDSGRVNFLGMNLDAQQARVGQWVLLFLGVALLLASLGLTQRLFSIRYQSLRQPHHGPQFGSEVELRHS
Protocol: For the angiotensin-I converting enzyme (ACE I) inhibitory activity measurements, the peptides were dissolved as described for the ORAC assay. As the highest possible concentration of the peptides without gel formation was 10 mg/mL and no activity could be detected at 5 mg/mL, the peptides were assessed at 7, 8.5, and 10 mg/mL in three independent replicates. The substrate N-[3-(2-furyl) acryloyl]-L-phenylalanyl-glycylglycine (FA-PGG; Sigma Aldrich F7131) was prepared at 0.88 mM in 50 mM Tris-Cl, pH 7.5, and 0.3 M NaCl. In 96-well plates, 10 µL of the samples and their respective buffers as controls were combined with 10 µL of ACE I (ACE; Sigma Aldrich A6778) at 0.25 U/mL and 150 µL of a preheated substrate solution. The absorbance was continuously measured every minute at 340 nm for 30 min in a Synergy HTX S1LFA plate reader. Linear regression curves were obtained for the decrease in absorbance over time for every sample and the % ACE I inhibition was calculated as:% ACE I inhibition = (1 − (ΔA340 nm protein solution/ΔA340 nm negative control)) × 100
Captopril was used to verify the functionality of the assay, and a logarithmic inhibition curve was obtained using 340, 34, 17, and 8.5 µM captopril. IC 50 values were calculated for the peptides for which a positive linear regression line could be obtained based on their ACE inhibition (%) at the assessed concentrations.

[3] = accompanying manufacturer information; ref ProteoGenix SAS; cited from earlier work
Protocol: The peptide synthesis was carried out using ProteoGenix SAS, (Schiltigheim France), followed by acetate N-terminal blocking and chromatography purification (LC-MS purity chromatograms per peptide are included in the Supplementary Materials). Thus, 1 g of lyophilized powder at 80% or a higher purity (technical grade) in sterile plastic bottles was provided by ProteoGenix for further research. The peptides were stored at −20 °C, opened only prior to the dissolution preparation and ...

In the case of Ac-RAGQPITAFLVRD [Peptide P2], the “solubility in sodium phosphate buffer (NaPB)” value (“solubility … (NaPB)” below) ([1]; room temperature, visual) is reported as “insoluble; also recorded: insolubility”, the individual peptide solubility ([1]; both buffers: Ca2+-containing artificial sea water pH 7.7 and 75 mM sodium phosphate buffer pH 7.4, 21 °C, visual, three repetitions) is reported as “low” and the inhibition at 10000 µg/mL ([2]; at 10 mg/mL, mean of three replicates) is reported as 75%. The IC50 [2] was 4.78 mM.

For “Ac-QNGEYGCVADTPNLLYAFKILDYRQ [Peptide P4]”, the “solubility … (NaPB)” value ([1]; room temperature, visual) was “dissolved after gentle agitation without any need for DMSO addition”, the “peptide concentration at which gelation occurs in NaPB” value (shortened to “peptide concentration … in NaPB”) [1] was “above 15 mM” and the IC50 [2] was 8.96 mM. For the same substance, the water solubility [3] was “poor”.

With Ac-SRPSDPASAVAGEDYTGISRN [Peptide P3] the “solubility in Ca2+-containing buffer” value ([1]; 1 mM peptide, artificial sea water pH 7.7, no DMSO, room temperature, visual) was “fully soluble”, the “solubility … (NaPB)” value ([1]; room temperature, visual) was “dissolved after gentle agitation without any need for DMSO addition” and the “peptide concentration … in NaPB” value [1] was “above 15 mM”. For the same substance, the “peptide concentration needed for gelation (minimal gelation conditions)” value ([1]; Ca2+-containing buffer (artificial sea water, 11 mM Ca2+, pH 7.7), room temperature 21 °C, mix at 1:1:1:1 ratio) was 15 mM.

In the case of “Ac-EMLWLSDGSMGFAEDTDAAFLPGDTIFGRI [Peptide P1]”, the “solubility … (NaPB)” value ([1]; room temperature, visual) is given as “dissolved after gentle agitation without any need for DMSO addition”, the “peptide concentration … in NaPB” value [1] is given as “above 15 mM” and the water solubility [3] is given as “poor”.
